In ChEMBL document CHEMBL3098059, “Identification by in silico and in vitro screenings of small organic molecules acting as reversible inhibitors of kallikreins” (Eur J Med Chem, 2013):
Calls of active or inactive are those of the source. The calls are words filed in the database; no cut-off is given here.

Tests used:
[1] = molecular target: Kallikrein-5 (Homo sapiens) (UniProt Q9Y337); assay: Reversible inhibition of human kallikrein5 using Boc-Val-Pro-Arg-AMC as substrate after 15 to 60 mins by fluorescence assay
Kallikrein-5 (Homo sapiens), sequence (Q9Y337 whole entry): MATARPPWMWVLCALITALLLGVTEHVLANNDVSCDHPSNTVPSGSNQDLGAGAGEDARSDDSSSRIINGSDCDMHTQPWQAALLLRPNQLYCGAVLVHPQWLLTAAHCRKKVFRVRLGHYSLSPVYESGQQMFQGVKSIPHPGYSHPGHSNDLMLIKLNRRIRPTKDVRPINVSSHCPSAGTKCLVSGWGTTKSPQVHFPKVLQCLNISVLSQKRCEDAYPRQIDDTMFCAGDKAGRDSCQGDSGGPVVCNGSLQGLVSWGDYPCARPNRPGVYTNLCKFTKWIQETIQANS

Kallikrein-7 [2] = molecular target: T1, Kallikrein-7 (Homo sapiens, UniProt P49862); assay: Inhibition of human kallikrein7 using Suc-Leu-Leu-Val-Tyr-AMC as substrate after 15 mins by fluorescence assay
Target sequence in this assay (P49862 whole entry): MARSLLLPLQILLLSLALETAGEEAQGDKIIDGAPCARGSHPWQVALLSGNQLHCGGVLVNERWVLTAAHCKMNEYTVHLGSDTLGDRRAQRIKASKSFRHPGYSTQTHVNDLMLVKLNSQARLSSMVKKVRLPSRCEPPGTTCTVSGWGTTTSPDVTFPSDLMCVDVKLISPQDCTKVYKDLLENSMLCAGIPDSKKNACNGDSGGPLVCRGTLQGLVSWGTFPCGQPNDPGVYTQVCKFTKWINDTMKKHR

[3] = Cytotoxicity against human keratinocytes assessed as cell viability at 1 uM after 24 to 48 hrs by neutral red assay; type: cell-based; details: keratinocyte
[4] = Cytotoxicity against human keratinocytes assessed as cell viability at 100 uM after 24 to 48 hrs by neutral red assay; type: cell-based; details: keratinocyte
Kallikrein-7 [5] = molecular target: T1, Kallikrein-7; assay: Mixed-type inhibition of human kallikrein7 using Suc-Leu-Leu-Val-Tyr-AMC as substrate assessed as enzyme-inhibitor complex after 15 to 60 mins by Lineweaver-Burk/Eadie-Hofstee plot analysis
Target sequence in this assay (P49862 whole entry): as above

[6] = molecular target: Kallikrein-5 (Homo sapiens) (UniProt Q9Y337); assay: Inhibition of human kallikrein5 using Boc-Val-Pro-Arg-AMC as substrate at 50 uM after 15 mins by fluorescence assay
[7] = molecular target: T2, Kallikrein-14 (Homo sapiens) (UniProt Q9P0G3); assay: Inhibition of human kallikrein14 using Boc-Val-Pro-Arg-AMC as substrate at 50 uM after 15 mins by fluorescence assay
T2 sequence (whole entry): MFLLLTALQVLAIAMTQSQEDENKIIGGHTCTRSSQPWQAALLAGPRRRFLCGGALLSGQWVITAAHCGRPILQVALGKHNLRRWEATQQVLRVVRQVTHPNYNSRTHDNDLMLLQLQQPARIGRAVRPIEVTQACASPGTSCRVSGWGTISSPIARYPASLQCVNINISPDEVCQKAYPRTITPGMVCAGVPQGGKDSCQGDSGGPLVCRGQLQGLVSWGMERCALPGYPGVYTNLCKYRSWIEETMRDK

Kallikrein-7 [8] = molecular target: T1, Kallikrein-7; assay: Ratio of Ki for mixed-type inhibition of human kallikrein7 assessed as enzyme-substrate-inhibitor complex to Ki for mixed-type inhibition of human kallikrein7 assessed as enzyme-inhibitor complex
Target sequence in this assay (P49862 30-253 limits assumed): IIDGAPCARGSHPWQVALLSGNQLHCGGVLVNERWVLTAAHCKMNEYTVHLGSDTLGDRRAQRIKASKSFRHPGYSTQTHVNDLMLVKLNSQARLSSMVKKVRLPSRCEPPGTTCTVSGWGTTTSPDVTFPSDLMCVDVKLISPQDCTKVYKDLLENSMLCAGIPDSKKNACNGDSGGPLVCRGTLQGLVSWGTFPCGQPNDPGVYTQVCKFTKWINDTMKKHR

Kallikrein-7 [9] = molecular target: T1, Kallikrein-7; assay: Mixed-type inhibition of human kallikrein7 using Suc-Leu-Leu-Val-Tyr-AMC as substrate assessed as enzyme-substrate-inhibitor complex after 15 to 60 mins by Lineweaver-Burk/Eadie-Hofstee plot analysis
Target sequence in this assay (P49862 whole entry): as the sequence (P49862 whole entry) above

[10] = molecular target: T3, Suppressor of tumorigenicity 14 protein (Homo sapiens) (UniProt Q9Y5Y6); assay: Reversible inhibition of matriptase (unknown origin) using Boc-Gln-Ala-Arg-AMC as substrate after 15 to 60 mins by fluorescence assay
T3 sequence (whole entry): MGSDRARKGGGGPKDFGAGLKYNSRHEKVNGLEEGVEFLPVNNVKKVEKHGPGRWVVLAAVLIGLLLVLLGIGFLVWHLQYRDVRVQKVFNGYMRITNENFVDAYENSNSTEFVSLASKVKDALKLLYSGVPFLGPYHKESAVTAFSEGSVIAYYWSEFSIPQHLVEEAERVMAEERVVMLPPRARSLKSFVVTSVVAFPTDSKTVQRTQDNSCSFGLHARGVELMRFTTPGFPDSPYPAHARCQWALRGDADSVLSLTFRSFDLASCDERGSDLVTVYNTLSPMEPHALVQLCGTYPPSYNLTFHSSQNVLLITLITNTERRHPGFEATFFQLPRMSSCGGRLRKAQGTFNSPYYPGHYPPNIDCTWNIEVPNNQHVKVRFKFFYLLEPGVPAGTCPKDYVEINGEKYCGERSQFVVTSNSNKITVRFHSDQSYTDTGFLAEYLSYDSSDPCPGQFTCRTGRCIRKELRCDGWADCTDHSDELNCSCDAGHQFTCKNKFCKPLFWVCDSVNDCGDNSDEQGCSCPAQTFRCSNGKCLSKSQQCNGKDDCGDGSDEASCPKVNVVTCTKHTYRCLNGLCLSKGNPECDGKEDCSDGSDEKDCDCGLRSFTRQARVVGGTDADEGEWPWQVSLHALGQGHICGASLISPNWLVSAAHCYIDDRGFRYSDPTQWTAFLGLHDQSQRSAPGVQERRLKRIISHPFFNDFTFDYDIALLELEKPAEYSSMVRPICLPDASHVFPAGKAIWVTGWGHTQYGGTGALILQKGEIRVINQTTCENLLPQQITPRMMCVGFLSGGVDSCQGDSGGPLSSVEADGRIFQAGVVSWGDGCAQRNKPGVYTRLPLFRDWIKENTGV

[11] = molecular target: Kallikrein-5 (Homo sapiens) (UniProt Q9Y337); assay: Competitive inhibition of human kallikrein5 using Boc-Val-Pro-Arg-AMC as substrate at 50 uM after 15 to 60 mins by Lineweaver-Burk/Eadie-Hofstee plot analysis
[12] = Cytotoxicity against human keratinocytes assessed as cell viability at 10 uM after 24 to 48 hrs by neutral red assay; type: cell-based, Keratinocyte; details: keratinocyte, 10 µM
[13] = molecular target: T3, Suppressor of tumorigenicity 14 protein (Homo sapiens); assay: Inhibition of matriptase (unknown origin) using Boc-Gln-Ala-Arg-AMC as substrate at 50 uM after 15 mins by fluorescence assay
Kallikrein-7 [14] = molecular target: T1, Kallikrein-7; assay: Reversible inhibition of human kallikrein7 using Suc-Leu-Leu-Val-Tyr-AMC as substrate after 15 to 60 mins by fluorescence assay
Target sequence in this assay (P49862 30-253 limits assumed): as the sequence (P49862 30-253 limits assumed) above

[15] = molecular target: T2, Kallikrein-14 (Homo sapiens); assay: Reversible inhibition of human kallikrein14 using Boc-Val-Pro-Arg-AMC as substrate after 15 to 60 mins by fluorescence assay

inhibition [1]: Active
IC50 (Kallikrein-7 [2]): 25 µM
Ki (Kallikrein-7 [5]): 15 µM
inhibition [6]: < 30%
inhibition [7]: < 30%
Ratio Ki (Kallikrein-7 [8]): 2
Ki (Kallikrein-7 [9]): 44 µM
inhibition [10]: Active
inhibition [11]: < 30%
inhibition [13]: < 30%
inhibition (Kallikrein-7 [14]): Active
inhibition [15]: Active
Structure (SMILES): Nc1ccc2[nH]c(SCc3nc4ccccc4c(=O)n3-c3cccc(C(F)(F)F)c3)nc2c1
Activity [3]: Non-toxic
Activity [4]: Non-toxic
Activity [12]: Non-toxic
